Experimental data reported in patent US20180353461A1, “USE OF CANNABINOIDS AS CERAMIDE-GENERATING ANTICANCER AGENTS IN TUMORS OF THE HEMATOPOIETIC AND LYMPHOID TISSUES” (priority 2014, published 2018).

Legend:
U266 cells [1] = experiment: Mitochondrial transmembrane potential (TMRE assay) in U266 cells; type: cell-based, human
Description: The loss of mitochondrial transmembrane potential (Δψm), a marker of early apoptotic events, was determined by staining with TRME [(tetramethylrhodamine-ethyl-ester-perchlorate), Santa Cruz Biotechnology Inc.]. TMRE is a cell-permeable dye that becomes fluorescent once it is inside the mitochondria and, it can be detected using a fluorescent plate reader (Tecan). Briefly, cells (10e6 cells per assay) were treated with different concentrations of WIN-55 in presence or absence of SPT-inhibitor for 15, 30, 45 and 60 min at 37° C. After washing twice, cells were incubated for 20 min at 37° C. in the dark with 1 uM TMRE. The fluorescent intensity was read in the plate reader with excitation and emission wavelengths set at 485 and 538 nm respectively for red fluorescence. For each condition, triplicate samples (at least five times) were run, fluorescent readings were corrected for background. In all assays, CCCP (2-[2-(3-Chlorophenyl) hydrazinylyidene] propanedinitrile, a potent mitochondrial uncoupler, was used as a positive control of mitochondrial potential status.
The early loss of mitochondrial-membrane potential induced by cannabinoids. To delve into the processes that participate in cannabinoid-induced apoptosis, finally we tested whether the cannabinoid treatment induces changes on Δψm in myelomatous cells. We observed that cannabinoids induced a drop of Δψm in U266 cells (FIG. 10). […]

U266 cells [2] = experiment: Western blot of signaling pathways (MAPKs, Akt) in U266 cells; type: cell-based, human
Description: Protein analyses were performed by Western blot in several sets of assays: expression pattern of CBs-receptors in MM cell lines and primary cells, and time course after treatment with cannabinoids in MM cell lines. Time-course assays were performed at 0, 2, 6, 18 and 24 hours. Anyway, obtaining cell lysates was conducted according to a protocol adapted to phosphorylation-dependent signaling, described by Gilbert et al. (2002). Briefly, 10e7 cells per condition were harvested at indicated times, washed with iced-cold PBS and lysate in isotonic lysis buffer 30 min keeping on ice. Isotonic lysis buffer contained 2% ASB-14 (CalbioChem, San Diego, Calif., USA),1% Nonidet P-40 (Ipegal®), 137 mM NaCl, 20mM Tris-HCl pH 7.5 at 4° C. (all from Sigma-Aldrich), 2 mM Na3VO4, 20 mM NaF (New England BioLabs Inc., Ipswich, Mass., USA), 2 mM DTT (AppliChem, Darmstadt, Germany), protease inhibitor cocktail (Roche Diagnostics GmbH, Mannheim, Germany), and 10 ul Nuclease Mix (Amersham GE Healthcare, Uppsala, Sweden). After lysis, samples were centrifuged at 13,000×g for 5 min at 4° C., and supernatants collected. Protein concentration in samples was determined by Pierce® Microplate BCA Protein Assay kit-Reducing Agent Compatible (Thermo Fisher Scientific). Before loading the samples in the gel, they were diluted in loading sample buffer (0.125 M Tris-HCl pH 6.8, 4% SDS, 20% glycerol, 0.02% Bromophenol Blue, 200 mM DTT) and the mixture was heated at 70° C. for 5 min in a thermoblock (LabNet International, N.J., USA).
Samples (15-25 ug/lane) were subjected to SDS/PAGE in pre-cast polyacrylamide gels AnykD (Bio-Rad Laboratories, Hercules, CA, USA) under reducing and denaturing conditions. Electrophoretic run was performed at a constant current of 15 mA per gel in a Mini-Protean® Tetra Cell (Bio-Rad Laboratories). Once proteins were separated by electrophoresis, were transferred onto PVDF membranes using Trans-Blot® Turbo™ System (Bio-Rad Laboratories). Electrotransference was conducted at constant amperage of 1.2 mA and at up to 25 V of voltage. The blotted membranes were then blocked with 2% bovine serum albumin [(BSA), Santa Cruz Biotechnology] in Tween-Tris buffer saline (TTBS) for 30 min with gentle agitation, and incubated overnight at 4° C. with corresponding primary antibody in TTBS. After twice washing with TTBS, membranes were incubated for 1-2 h at room temperature with suitable conjugated-HRP secondary antibody, and subjected to chemiluminescence detection using Western Blotting Luminol Reagent (Santa Cruz Biotechnology). Loading controls were carried out with an anti-beta-actin and anti-beta-tubulin antibodies (Sigma-Aldrich). Blots were captured using a digital imaging system ImageQuant LAS 4000 (Amersham GE Healthcare) and transferred to a digital image processing software to analyze (Adobe Photoshop CS2, version 9.0., Adobe Systems Inc., San Jose, Calif.).
Signaling pathways targeted by cannabinoids in myelomatous cells. To get further insights into the mechanisms of cannabinoids-induced apoptosis, we assessed the expression profile of phosphorylated-JNK, -Erk1/2, -p38 MAPK and -Akt by Western blot.

For CS(=O)(=O)O.Cc1c(C(=O)c2cccc3ccccc23)c2cccc3c2n1[C@H](CN1CCOCC1)CO3 [WIN-55, (R)-(+)-[2,3-dihydro-5-methyl-3-(4-morpholinylmethyl)-pyrrolo-[1,2,3]-1,4-benzoxazin-6-yl]-1-naphthalenylmethanone mesylate], the “mitochondrial membrane potential (Δψm)” value (U266 cells [1]) was “early loss of potential of mitochondrial membrane”, the “p-Akt at early time points” value (U266 cells [2]; U266) was “significant up-regulation” and the “p-Akt expression levels at later times” value (U266 cells [2]; U266) was “sharp decline”. For the same compound, the “total Akt-expression, first 6 hours of exposure” value (U266 cells [2]; U266) was “remained unchanged”, the p-JNK (U266 cells [2]; U266, WIN-55 50 uM) was “slightly up-regulated” and the “up-regulation of p-Erk1/2, compared with the slight up-regulation of p-JNK” value (U266 cells [2]; U266, WIN-55 50 uM) was “to a lesser extent”. The “p-p38 MAPK” value (U266 cells [2]; U266, time-dependent) was “moderately downregulated”.
